Experimental data published in US9266892B2, “Fused pyrazoles as FGFR inhibitors” (Incyte Corporation, priority 2012, dated 2016).

What was measured:
Type in all cases: biochemical
FGFR2 = target: T1, FGFR2 (Homo sapiens, UniProt P21802); experiment: FGFR Enzymatic Assay (FRET peptide phosphorylation), FGFR2; details: FGFR2 0.01 nM, ATP 100 μM
T1 construct: purchased Millipore or Invitrogen
Procedure, shortened: (§1)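 Human FGFR1 (0.02 nM) and FGFR2 (0.01 nM) were pre-incubated with compound for 5-10 min in HEPES buffer pH 7.5, then reacted at 25 °C for 1 hr with 500 nM biotinylated peptide and ATP (FGFR1 210 μM; FGFR2 100 μM). Phosphopeptide was detected by Eu-PY20/APC-streptavidin TR-FRET after EDTA quench. IC50 came from variable-slope sigmoidal fits.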

FGFR3 = target: T2, FGFR3 (Homo sapiens, UniProt P22607); experiment: FGFR Enzymatic Assay (FRET peptide phosphorylation), FGFR3; details: ATP 140 μM, 25° C. for 1 hr
T2 construct: purchased Millipore
Procedure, shortened: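 FGFR3 in 50 mM HEPES pH 7.5, 10 mM […]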

FGFR1 = target: T3, FGFR1 (Homo sapiens, UniProt P11362); experiment: FGFR Enzymatic Assay (FRET peptide phosphorylation), FGFR1; details: FGFR1 0.02 nM, ATP 210 μM
T3 construct: purchased Millipore or Invitrogen
Procedure, shortened: as §1

Measured: IC50

T2 sequence (P22607 23-806): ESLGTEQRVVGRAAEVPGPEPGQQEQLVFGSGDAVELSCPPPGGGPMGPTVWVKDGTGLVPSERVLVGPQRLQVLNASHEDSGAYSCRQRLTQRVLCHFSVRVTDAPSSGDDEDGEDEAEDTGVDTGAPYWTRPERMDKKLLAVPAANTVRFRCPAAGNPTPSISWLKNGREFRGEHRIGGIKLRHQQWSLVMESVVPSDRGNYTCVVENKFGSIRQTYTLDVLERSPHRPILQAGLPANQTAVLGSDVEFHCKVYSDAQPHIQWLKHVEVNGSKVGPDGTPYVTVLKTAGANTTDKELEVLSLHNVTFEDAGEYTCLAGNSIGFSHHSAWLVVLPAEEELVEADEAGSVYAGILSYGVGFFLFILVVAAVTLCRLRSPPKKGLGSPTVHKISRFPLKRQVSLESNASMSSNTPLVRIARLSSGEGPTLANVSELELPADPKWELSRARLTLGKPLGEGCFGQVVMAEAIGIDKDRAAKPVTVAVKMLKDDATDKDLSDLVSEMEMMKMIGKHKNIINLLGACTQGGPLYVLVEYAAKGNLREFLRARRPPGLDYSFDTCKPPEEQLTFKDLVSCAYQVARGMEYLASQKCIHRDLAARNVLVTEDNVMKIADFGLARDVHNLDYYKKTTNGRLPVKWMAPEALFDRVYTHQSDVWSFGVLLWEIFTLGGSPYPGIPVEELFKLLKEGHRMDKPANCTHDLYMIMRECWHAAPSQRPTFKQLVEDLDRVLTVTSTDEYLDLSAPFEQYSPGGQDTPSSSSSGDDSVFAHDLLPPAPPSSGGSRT
T1 sequence (P21802 22-821): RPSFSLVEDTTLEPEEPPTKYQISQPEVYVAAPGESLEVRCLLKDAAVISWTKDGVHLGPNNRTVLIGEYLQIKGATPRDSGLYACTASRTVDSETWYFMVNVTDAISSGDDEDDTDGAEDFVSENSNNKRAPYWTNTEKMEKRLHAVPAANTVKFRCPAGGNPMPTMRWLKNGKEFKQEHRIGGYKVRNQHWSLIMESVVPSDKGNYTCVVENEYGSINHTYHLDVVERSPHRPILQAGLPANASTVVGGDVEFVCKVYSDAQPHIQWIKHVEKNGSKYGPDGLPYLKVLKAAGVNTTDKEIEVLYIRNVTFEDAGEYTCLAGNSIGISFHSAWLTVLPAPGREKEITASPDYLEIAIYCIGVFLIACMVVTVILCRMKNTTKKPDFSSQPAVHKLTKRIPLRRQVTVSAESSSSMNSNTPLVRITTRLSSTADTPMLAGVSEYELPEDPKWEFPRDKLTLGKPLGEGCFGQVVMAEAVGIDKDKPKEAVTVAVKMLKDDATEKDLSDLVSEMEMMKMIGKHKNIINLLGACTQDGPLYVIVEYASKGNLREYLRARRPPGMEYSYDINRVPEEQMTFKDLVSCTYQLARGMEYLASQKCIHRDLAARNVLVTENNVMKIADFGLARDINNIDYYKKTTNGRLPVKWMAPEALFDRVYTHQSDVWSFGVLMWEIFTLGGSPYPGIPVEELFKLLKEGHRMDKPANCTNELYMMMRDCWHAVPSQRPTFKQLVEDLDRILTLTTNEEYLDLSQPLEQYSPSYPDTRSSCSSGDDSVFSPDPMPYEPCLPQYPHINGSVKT
T3 sequence (P11362 22-822): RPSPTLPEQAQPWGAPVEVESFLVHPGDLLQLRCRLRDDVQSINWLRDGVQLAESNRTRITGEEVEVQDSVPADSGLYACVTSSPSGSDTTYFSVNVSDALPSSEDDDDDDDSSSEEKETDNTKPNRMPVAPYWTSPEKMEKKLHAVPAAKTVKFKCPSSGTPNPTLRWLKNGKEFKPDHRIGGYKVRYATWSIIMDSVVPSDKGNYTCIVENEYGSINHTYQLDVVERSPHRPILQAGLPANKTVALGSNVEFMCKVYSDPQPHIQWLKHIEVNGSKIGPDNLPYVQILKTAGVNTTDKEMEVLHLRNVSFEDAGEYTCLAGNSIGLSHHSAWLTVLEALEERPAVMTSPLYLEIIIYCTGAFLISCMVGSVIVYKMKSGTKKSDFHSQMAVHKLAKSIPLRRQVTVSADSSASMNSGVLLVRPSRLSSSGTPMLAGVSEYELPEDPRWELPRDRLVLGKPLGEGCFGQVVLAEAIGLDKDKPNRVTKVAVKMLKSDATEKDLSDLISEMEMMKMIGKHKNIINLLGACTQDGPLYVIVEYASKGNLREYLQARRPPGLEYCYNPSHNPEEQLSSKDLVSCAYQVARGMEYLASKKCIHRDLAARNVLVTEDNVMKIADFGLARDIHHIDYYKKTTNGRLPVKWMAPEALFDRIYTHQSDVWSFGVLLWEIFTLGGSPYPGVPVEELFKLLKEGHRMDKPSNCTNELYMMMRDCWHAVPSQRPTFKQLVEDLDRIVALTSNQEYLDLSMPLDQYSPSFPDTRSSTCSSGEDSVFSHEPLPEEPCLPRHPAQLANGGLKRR

COc1cc(OC)c(F)c(-c2ncc3c(-c4ccc5c(c4)CN(CC(C)O)C5=O)n[nH]c3n2)c1F (stereo not drawn) [Example 82, 5-[6-(2,6-Difluoro-3,5-dimethoxyphenyl)-1H-pyrazolo[3,4-d]pyrimidin-3-yl]-2-(2-hydroxypropyl)isoindolin-1-one]
< 100 nM: all assays above

COc1cc(OC)c(F)c(-c2ncc3c(-c4ccc5c(c4)CN(S(C)(=O)=O)CC5)n[nH]c3n2)c1F [Example 85, 7-[6-(2,6-Difluoro-3,5-dimethoxyphenyl)-1H-pyrazolo[3,4-d]pyrimidin-3-yl]-2-(methylsulfonyl)-1,2,3,4-tetrahydroisoquinoline]
< 100 nM: all assays above

COc1cc(OC)c(Cl)c(-c2ncc3c(-c4ccc5c(c4)CCO5)n[nH]c3n2)c1Cl [Example 86, 6-(2,6-Dichloro-3,5-dimethoxyphenyl)-3-(2,3-dihydro-1-benzofuran-5-yl)-1H-pyrazolo[3,4-d]pyrimidine]
< 100 nM: all assays above

COc1cc(OC)c(F)c(-c2ncc3c(-c4cnn(C)c4)n[nH]c3n2)c1F [Example 87, 6-(2,6-Difluoro-3,5-dimethoxyphenyl)-3-(1-methyl-1H-pyrazol-4-yl)-1H-pyrazolo[3,4-d]pyrimidine]
< 100 nM: all assays above

COc1cc(OC)c(F)c(-c2cc3[nH]nc(-c4cnn(CCO)c4)c3cn2)c1F [Example 88, 2-{4-[6-(2,6-Difluoro-3,5-dimethoxyphenyl)-1H-pyrazolo[4,3-c]pyridin-3-yl]-1H-pyrazol-1-yl}ethanol]
< 100 nM: all assays above

COc1cc(OC)c(Cl)c(-c2ccc3c(-c4ccc5c(c4)CN(C4CC4)C5=O)n[nH]c3n2)c1F [Example 89, 5-[6-(2-Chloro-6-fluoro-3,5-dimethoxyphenyl)-1H-pyrazolo[3,4-b]pyridin-3-yl]-2-cyclopropylisoindolin-1-one]
< 100 nM: all assays above

COc1cc(OC)c(Cl)c(-c2cc3[nH]nc(-c4cnn(C)c4)c3cn2)c1Cl [Example 90, 6-(2,6-Dichloro-3,5-dimethoxyphenyl)-3-(1-methyl-1H-pyrazol-4-yl)-1H-pyrazolo[4,3-c]pyridine]
< 100 nM: all assays above

COc1cc(OC)c(F)c(-c2cc3[nH]nc(-c4cnn(C)c4)c3cn2)c1F [Example 91, 6-(2,6-Difluoro-3,5-dimethoxyphenyl)-3-(1-methyl-1H-pyrazol-4-yl)-1H-pyrazolo[4,3-c]pyridine]
< 100 nM: all assays above

COC(=O)c1cc2cc(-c3n[nH]c4cc(-c5c(F)c(OC)cc(OC)c5F)ncc34)ccc2o1 [Example 92, Methyl 5-[6-(2,6-difluoro-3,5-dimethoxyphenyl)-1H-pyrazolo[4,3-c]pyridin-3-yl]-1-benzofuran-2-carboxylate]
< 100 nM: all assays above

COc1cc(OC)c(F)c(-c2ncc3c(-c4ccc5nccn5c4)n[nH]c3n2)c1F [Example 93, 6-(2,6-Difluoro-3,5-dimethoxyphenyl)-3-imidazo[1,2-a]pyridin-6-yl-1H-pyrazolo[3,4-d]pyrimidine]
< 100 nM: all assays above

COc1cc(OC)c(F)c(-c2ncc3c(-c4ccc5ncccc5c4)n[nH]c3n2)c1F [Example 94, 6-[6-(2,6-Difluoro-3,5-dimethoxyphenyl)-1H-pyrazolo[3,4-d]pyrimidin-3-yl]quinoline]
< 100 nM: all assays above
